In data set [1] the test system is rheumatoid arthritis. Put plainly: Treatment of patients suffering from rheumatoid arthritis (CRP, tender/swollen joints, HAQ, patient's statement). The class given is in vivo, human.
Data set [2] concerns ankylosing spondylitis (Bechterew's disease). Type of data set: in vivo, human. Particulars: for Outcome of earlier treatment with TNF-α inhibitors (patient history): human, in vivo.
Data set [3] deals with skin. Particulars: healthy subjects, cited from earlier work.
Data set [4] deals with polymyalgia rheumatica. Put plainly: Treatment of patients suffering from polymyalgia rheumatica (CRP, tender/swollen joints, HAQ). Type of data set: in vivo, human. Particulars: Patient 14; 70 mg gradually reduced to 8 mg, increased again to 10 mg. An excerpt:
The investigation and determination of the joint condition has been performed by a physician or rheumatologist. A tender joint (TJ) was pressure sensitive but not necessarily swollen. […] The amount of TJ and SJ was counted. A reduction in the amounts of TJ and/or SJ, respectively, was an indication for a reduction in inflammation, mitigation of the disease and an improvement of the patient's health condition.
The CRP (C-reactive protein) is the most important blood laboratory value for detecting and monitoring inflammation in the body. It was determined by a certified laboratory. A low CRP indicates the absence of an inflammation, while a high CRP is indicative for an inflammation to be present.
The functional disability index (HAQ) is the average of the highest numerical values reported for each of the eight different domains. High HAQ-scores correspond to a high degree of disability.
The treatment according to the present invention was performed by topically applying a heat pad on the upper side of the forearm as described in the Materials and Methods' section ‘Application of a heat pad’. The heat pad was applied for about 1 min to 2 min. The skin turned red and became warm and an increase in the skin temperature was palpable. About 30 see to 1 min after removing the heat pad the injections were performed intradermally within the skin of the red and warmed skin area. […]

Consider 8 compounds from US20240261374A1, “PHARMACEUTICAL COMPOSITION AND KIT COMPRISING AN IMMUNOMODULATORY SUBSTANCE FOR TREATING DISEASES” (ellennbe GmbH, priority 2021, published 2024).

Turning to `CC[C@@H]1CN(C(=O)NCC(F)(F)F)C[C@@H]1c1cnc2cnc3[nH]ccc3n12` [upadacitinib], in data set [1] (Patient 7, years 2008 to April 2021), the “Adverse side effects / outcome of earlier treatment (patient history)” value was “severe adverse effects (tendency to fibrosis in the lungs and sinusitis)”. Consider Remicade®: TNF-α inhibitor, for which, in data set [2], the “Outcome of earlier treatment with TNF-α inhibitors (patient history)” value is recorded as “accompanied by strong adverse side effects”. The same measure, in the same setting: under Enbrel® stands “accompanied by strong adverse side effects”.

For the compound `COC(=O)c1cccnc1` [MN, methyl nicotinate], in data set [3] (50 μl of 20 mmol/l MN topically), the “Perfusion response of the skin” value is listed as “reproducible perfusion response”. Also, the “Time course of the perfusion increase” value in data set [3] (topical application of MN) was “reaches a stable plateau phase after five minutes”.

For the compound “Simponi®: biologic, golimumab; TNF-α inhibitor”, in data set [2] (Patient 11, ended more than a year before, lost their effect within half a year), the “Effect of earlier treatment with biologics (patient history)” value is listed as “had little effect from the outset”. Further, in data set [2], the “Outcome of earlier treatment with TNF-α inhibitors (patient history)” value is given as “accompanied by strong adverse side effects”. With tocilizumab: IL-6 inhibitor, the “Effectiveness of earlier or basic treatment (patient history)” value in data set [1] (Patient 7, not the treatment of the invention) was “only partially efficient”.

As for `C[C@]12C=CC(=O)C=C1CC[C@@H]1[C@@H]2[C@@H](O)C[C@@]2(C)[C@H]1CC[C@]2(O)C(=O)CO` [prednisolone], the “Outcome of earlier treatment (patient history)” value in data set [4] is reported as “without complete remission of symptoms”.

As to `CN(Cc1cnc2nc(N)nc(N)c2n1)c1ccc(C(=O)N[C@@H](CCC(=O)O)C(=O)O)cc1` [MTX, methotrexate], the “Adverse side effects / outcome of earlier treatment (patient history)” value in data set [1] (human, in vivo) is “severe adverse effects (tendency to fibrosis in the lungs and sinusitis)”.
